Data reported in patent publication US20230096663A1, “FARNESOID X RECEPTOR MODULATING COMPOUNDS AND METHODS OF USING THE SAME” (Inorbit Therapeutics AB, priority 2020, published 2023).
Where two headings read alike, the source gives them in different places.

Columns and labels:
[1] = Compound exposure in plasma and liver of HFHC fed male mice; assay type: in vivo; settings: C57BL/6J, mouse, oral; for Kp at 4 h: liver/plasma, 4 hours after last dose on day 28, read-out: Ratio (liver to plasma exposure)
STAM model NASH mice = assay: In-vivo efficacy in STAM model of non-alcoholic steatohepatitis; settings: oral once daily for three weeks, 0.3, 1 or 3 mg/kg
Protocol: NASH was induced in male mice by a single subcutaneous injection of 200 μg streptozotocin (STZ, Sigma-Aldrich, USA) solution 2 days after birth and feeding with high fat diet (HFD, 57 kcal % fat, Cat #HFD32, CLEA Japan, Inc., Japan) after 4 weeks of age. NASH model mice were randomized into groups of 8 mice at 6 weeks of age based on their body weight the day before the start of treatment. The compound of Example 2 was then administered orally in a volume of 10 ml/kg at dose levels 0.3 mg/kg, 1 mg/kg and 3 mg/kg once daily for 3 weeks. […] NAFLD Activity score (NAS) was calculated according to the criteria of Kleiner (Kleiner D E. et al., Hepatology, 2005; 41:1313). […] For quantitative analysis of fibrosis area, bright field images of Sirius red-stained sections were captured around the central vein using a digital camera (DFC295; Leica, Germany) at 200-fold magnification, and the positive areas in 5 fields/section were measured using ImageJ software (National Institute of Health, USA). […] The score can be used to quantify changes in NAFLD during disease progression and on administration of potential therapeutics. In order to quantify the degree of fibrosis Sirius red stained liver sections were used to visualise and study collagen distribution.

[2] = Metabolic identification in human hepatocytes; assay type: in vitro ADME
Protocol: (§1) A 10 mM stock of test compound from Example 2 (sodium 2-(3-((5-cyclopropyl-3-(2-(trifluoromethoxy)phenyl)isoxazol-4-yl)methoxy)-8-azabicyclo[3.2.1]octan-8-yl)-4-fluorobenzo[d]thiazole-6-sulfinate) was prepared in DMSO. 20 μM of final working stock was then prepared by diluting 4 μL of 10 mM stock in 1996 μL of Krebs-Hensleit buffer. 200 μL of hepatocyte cell suspension (2×10^6 cells/mL) was added to TPP 48 well plate and preincubated for 30 min @ 37° C. in incubator. 200 μL of 20 μM working stock of test compound was added to the cell suspension and incubated in an incubator on vibramax at a shaking speed of 500 rpm. For the 0 min sample, 25 μL of hepatocyte suspension was precipitated with 200 μL of acetonitrile and 25 μL of 20 μM test compound was added. The reaction was stopped at 15, 30, 60, 90, 120 min by precipitating 50 μL of incubation mixture with 200 μL of acetonitrile. The samples were vortexed for 5 min at 1200 rpm and centrifuged at 4000 rpm for 10 min. The supernatant was separated, diluted 2 fold with water and analysed using a HPLC (Shimadzu SIL HTS) and mass spectrometer (5500 Qtrap). Acetonitrile and 0.1% formic acid in Milli-q-water were used as the mobile phase, using a column of either Waters Xbridge C18, 250×3.0 mm, 5.0μ particle size or Phenomnex kinetex 5μ EVO C18 100 A, 50×4.6 mm 5.0μ particle size.
Table 4 summarizes the major metabolites observed when the compound of Example 2 of the invention was incubated in human, dog or mouse hepatocytes.

[3] = Metabolic identification in dog hepatocytes; assay type: in vitro ADME; settings: up to 120 min
Protocol: as §1, with “size. […]” for “size.”

[4] = tested on: HFHC fed male C57BL/6 mice; assay: In-vivo efficacy in high fat high cholesterol diet (HFHC) fed male C57BL/6 mice; settings: oral, 3 mg/kg BID, 3 mg/kg QD and 10 mg/kg BID, after 28 days
Protocol: C57BL/6J male mice were purchased at the age of 8 weeks. After an acclimation period of 1 week, animals were maintained on high fat high cholesterol diet (Research diets) with 60% kcal from fat plus 0.5% (w/w) extra cholesterol (Research diet, D02051401) for a period of 4 weeks. Age matched control animals (n=6) were maintained on normal chow. Mice were dosed with vehicle, test compounds and GW4064 morning (7.00 AM) and evening (5:00 PM) from day 0 to 27. At 28th day, animals were dosed at 7:00 AM and kept on fasting for next 4 hours before blood and tissues collection. Plasma samples separated from collected blood were stored at −20° C. immediately for estimation analysis. The samples were analyzed using the Siemens Dimension RxL Max Clinical chemistry analyzer.
Right liver lobe was used for the test compounds exposure, triglyceride and cholesterol estimation. Liver tissues were dissected, weighed and snap frozen and stored at −80° C. for further analysis of hepatic triglyceride, cholesterol and compound exposure. In brief, stored tissues were thawed to room temperature and triglycerides were extracted by homogenizing 25 mg of liver tissues in 1 ml of 5% Triton X100 (Lot No. 61K01741-Sigma Aldrich) in water. Homogenized tissues were slowly heated to 80° C. in water bath for 5 minutes. The samples were cooled down and again heated to solubilize all the triglycerides into solution. The samples were centrifuged for 5 minutes at 4000 RPM and supernatant was collected for quantification^3 using commercially available kit from ERBA (Lot No. B061832).
Homogenized samples were centrifuge at 13000 g for 10 minutes to remove insoluble material. The organic phase was separated into new tube and air dried at 50° C. to remove chloroform. Thereafter, samples were vacuumed for 30 minutes to remove residue organic solvent. Dried lipids were dissolved in 200 μL of cholesterol assay buffer (provided with Sigma cholesterol assay kit Lot No. B2J210603V), sonicated for 20 minutes and vortexed until mixture was homogenous as mentioned in kit protocol. Samples were diluted with cholesterol assay buffer at (1:10) ratio to fit in standard curve and finally 50 μL of diluted samples were used for the assay.
Compound levels were also measured in the plasma and liver to understand its distribution profile.

## O=S([O-])c1cc(F)c2nc(N3[C@@H]4CC[C@H]3C[C@@H](OCc3c(-c5ccccc5OC(F)(F)F)noc3C3CC3)C4)sc2c1.[Na+] [Example 2, Sodium 2-(3-((5-cyclopropyl-3-(2-(trifluoromethoxy)phenyl)isoxazol-4-yl)methoxy)-8-azabicyclo[3.2.1]octan-8-yl)-4-fluorobenzo[d]thiazole-6-sulfinate]
[1]; liver, 3 mg/kg, 3 mg/kg BID oral, 4 hours after last dose on day 28, read-out: Mean compound exposure, Liver
  concentration at 4 h: 54.8 ng/g
[1]; liver, 10 mg/kg, 10 mg/kg BID oral, 4 hours after last dose on day 28, read-out: Mean compound exposure, Liver
  concentration at 4 h: 138 ng/g
[1]; liver, 10 mg/kg, 10 mg/kg QD oral, 4 hours after last dose on day 28, read-out: Mean compound exposure, Liver
  concentration at 4 h: 80.1 ng/g
[1]; 3 mg/kg, 3 mg/kg BID oral
  Kp at 4 h: 54.8
[1]; 10 mg/kg, 10 mg/kg BID oral
  Kp at 4 h: 65.9
[1]; 10 mg/kg, 10 mg/kg QD oral
  Kp at 4 h: 66.8
[1]; plasma, 3 mg/kg, 3 mg/kg BID oral, 4 hours after last dose on day 28, read-out: Mean compound exposure, Plasma
  concentration at 4 h: 1 ng/mL
[1]; plasma, 10 mg/kg, 10 mg/kg BID oral, 4 hours after last dose on day 28, read-out: Mean compound exposure, Plasma
  concentration at 4 h: 2.1 ng/mL
[1]; plasma, 10 mg/kg, 10 mg/kg QD oral, 4 hours after last dose on day 28, read-out: Mean compound exposure, Plasma
  concentration at 4 h: 1.2 ng/mL
STAM model NASH mice
  Fibrosis area (Sirius red positive area): Significant reductions
  NAFLD Activity score (NAS): Significant reductions
[2]; 120 mins
  Major metabolite by MS/MS (FIG. 14): hydroxy compound
[2]; up to 120 min
  Acyl-Glucuronide: No
  Observed Major Metabolites: Hydroxy, Alkenyl and Alkenyl-hydroxy
[3]
  Acyl-Glucuronide: No
[4]
  Cholesterol levels in the liver: reductions
  Cholesterol levels in the plasma: reductions
  Liver triglycerides: reductions
